Experimental data: ChEMBL document CHEMBL3988442, “University of Dundee, Small-Polar-MMV Screening Library” (2021)
Several values for one entry are separate records, joined by “and”; a condition that tells them apart may be missing. Equal entries are not always repeated.

Legend:
[1] = system: Plasmodium falciparum; assay: Plasmodium falciparum sporozoite viability assay; type: functional, organism-based; conditions: for IC50: Plasmodium falciparum
[2] = target: Sialic acid-binding Ig-like lectin 9 (Homo sapiens, UniProt Q9Y336); assay: Hs-Siglec9 ALPHAscreen SOP 20170721
[3] = target: T1, Coenzyme A biosynthesis bifunctional protein CoaBC (Mycobacterium tuberculosis (strain ATCC 25618 / H37Rv), UniProt P9WNZ1); assay: Biomol Green assay for MtCoaBC inhibitor, OD650 read; type: functional
T1 sequence (P9WNZ1 whole entry): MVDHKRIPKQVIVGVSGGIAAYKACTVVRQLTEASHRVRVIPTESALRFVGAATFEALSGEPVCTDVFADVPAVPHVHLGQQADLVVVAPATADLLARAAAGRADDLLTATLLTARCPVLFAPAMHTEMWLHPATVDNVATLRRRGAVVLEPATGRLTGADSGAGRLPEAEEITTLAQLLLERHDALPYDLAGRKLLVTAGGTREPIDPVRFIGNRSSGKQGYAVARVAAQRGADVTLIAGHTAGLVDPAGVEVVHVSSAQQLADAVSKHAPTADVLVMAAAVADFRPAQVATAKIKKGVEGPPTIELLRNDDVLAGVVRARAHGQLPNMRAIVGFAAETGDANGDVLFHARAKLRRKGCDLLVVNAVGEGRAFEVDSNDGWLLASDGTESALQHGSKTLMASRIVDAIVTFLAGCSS

[4] = target: Polyketide synthase Pks13 (Mycobacterium tuberculosis (strain ATCC 25618 / H37Rv), UniProt I6X8D2); assay: Mycobacterium tuberculosis Polyketide synthase 13 Thioesterase (PKS13); type: functional
[5] = target: ClpP1P2 (Mycobacterium tuberculosis (strain ATCC 25618 / H37Rv), UniProt P9WPC3+P9WPC5); assay: in vitro assay to detect presence of AMC directly proportional to the activity of ClpP1P2. GHDDI collaboration.; type: functional
[6] = In vitro enzyme assay to detect hydrolysis of chlorophenol red-beta-D-[…] directly proportional to the number of Toxoplasma stably expressing beta-galactosidase; type: functional, organism-based, Toxoplasma gondii; conditions: for IC50: Toxoplasma gondii
[7] = target: Lysine--tRNA ligase (Plasmodium falciparum (isolate 3D7), UniProt Q8IDJ8); assay: Pf-KRS-1 (Lysyl-RNA Synthetase-1, KRS-1, cytosolic KRS) from Plasmodium falciparum. Inhibitor assay, 384 well plate, luminescence read.; type: functional
[8] = system: Plasmodium falciparum; assay: Calibr Malaria Delayed Death Assay SOP; type: functional, organism-based; conditions: for IC50: Plasmodium falciparum

Structure (SMILES)	pIC50 [1]	IC50 [1] [nM]	IC50 [2] [µM]	other results
Cn1cnc2c1CCN(Cc1csc(-c3ccccc3F)n1)C2	6.45	363		
Cc1cc(C)n(CC2CN(Cc3nc4ccccc4s3)CCO2)n1 (stereo unspecified)	6.064	1720		
COc1cccc(-c2noc(C3CCN(CC(N)=O)C3)n2)c1 (stereo unspecified)		> 10500		
Cc1cccc(C(=O)Nc2ccc(OC3CCN(C)CC3)cc2)c1	7.031	119		
CC(=O)Nc1nc(C(=O)N2CCCC(n3cncn3)C2)cs1 (stereo unspecified)	5.727	3370		
OC1CCN(c2ccc(CNc3nc4ccccc4s3)cc2F)CC1	7.297 and 6.882			
CC(C)c1nc2c(n1C)CCN(Cc1nc(-c3ccsc3)no1)C2	5.081 and 5.405			
COCC1CN(Cc2ccsc2)Cc2cnn(C)c21 (stereo unspecified)			> 30.2	IC50 [3]: > 30.2 µM
CN1CCCC1CCn1ccnc1-c1nc(-c2ccccc2)no1 (stereo unspecified)	6.882	71.6		
CC(=O)N1Cc2ccccc2CC1C(=O)Nc1cc(C)ccn1 (stereo unspecified)	7.317	41.2		
Cc1csc(NC(=O)c2cnc(C3CCCN(C)C3)cn2)n1 (stereo unspecified)	5.674 and 6.096			
CCC1CN(C(=O)c2ccc(O)cn2)CCC(=O)N1Cc1ccccc1 (stereo unspecified)	5.529 and 5.955			
CN(C)CCNc1ccc(-c2nc(-c3ccccc3F)no2)cn1	7.212 and 6.908			
CSc1ccccc1C(=O)Nc1ccc(OC2CCN(C)CC2)cc1	6.337 and 5.999			
C(=C\c1ccc(CN2CCCC2)cn1)/c1ccccc1	7.171	113		
COc1ccc2cc(C3CN(C(=O)CCNC(C)=O)CCO3)ccc2c1 (stereo unspecified)	7.142	48.6		
CNc1cc(C)nc(N2C[C@@H](C(=O)O)[C@H](C3CC3)C2)n1	5.907	989		
O=C(Nc1cccc(Cl)c1)c1nn(C2CCS(=O)(=O)C2)c2c1CCCC2 (stereo unspecified)	5.123	8150		
Cc1ncsc1CN(C)Cc1cc2c(cc1OC(F)F)OCO2	5.624	3970		

Structure (SMILES)	pIC50 [1]	IC50 [1] [nM]	IC50 [2] [µM]	other results
O=C(Cc1ccc2c(c1)OCCO2)N1CCCC(n2cccn2)C1 (stereo unspecified)	< 4.98 and 5.311			
Cc1cc(C(=O)NCc2cc(C)oc2C)no1			> 30.2	IC50 [4]: > 100 µM
CCCc1cc(CNC2CCN(c3nc4ccccc4s3)CC2)on1	5.685	1840		
CC(C)(C)c1ncc(C(=O)NCCSc2ccccn2)c(O)n1	7.35	63.2		
O=C(NCCc1nncn1C1CC1)c1cc2ccccn2c1			> 30.2	IC50 [5]: > 100 µM
COc1c(C(=O)NCC(C)C)nnn1Cc1ccccc1			> 30.2	IC50 [6]: > 50.1 µM
FC(F)(F)c1cc(C2CCN(c3cnccn3)CC2)n2ccnc2n1			> 30.2	IC50 [5]: > 100 µM
c1cnc(N2CCC3(CCN(CC4CCOC4)CC3)CC2)nc1 (stereo unspecified)			> 30.2	IC50 [7]: > 50.1 µM
COc1c(C(=O)NCC2CCCO2)nnn1Cc1ccccc1 (stereo unspecified)			> 30.2	IC50 [6]: > 50.1 µM
CN1CC2(CCN(Cc3ccoc3)CC2)COc2ccccc2S1(=O)=O.O=C(O)C(F)(F)F			> 30.2	pIC50 [8]: 5.92; IC50 [8]: 906 nM
CCOCCCNC(=O)c1nnn(Cc2ccccc2)c1OC			> 30.2	IC50 [6]: > 50.1 µM
COc1ccc(C(C)NCc2ccsc2)cc1Cn1cccn1 (stereo unspecified)			> 30.2	pIC50 [8]: 6.257; IC50 [8]: 477 nM
CC(C)N1CCCC(c2cc(C(F)(F)F)nc3nccn23)C1 (stereo unspecified)			> 30.2	IC50 [5]: > 100 µM
O=C1Nc2ccccc2CN(C/C=C/c2ccccc2)C12CCNC2 (stereo unspecified)			> 30.2	pIC50 [6]: 4.701; IC50 [6]: 15 µM
Cc1cc(C(=O)N2CCCC(c3cc(=O)nc4n3CCC4)C2)on1 (stereo unspecified)			> 30.2	IC50 [3]: > 30.2 µM
COc1c(C(=O)NCc2cnn(C)c2C)nnn1Cc1ccccc1			> 30.2	IC50 [6]: > 50.1 µM
CCn1nc(C)c(NC(=O)c2nnn(Cc3ccccc3)c2OC)c1C			> 30.2	IC50 [6]: > 50.1 µM
COc1c(C(=O)NCc2cccnc2)nnn1Cc1ccccc1			> 30.2	IC50 [6]: > 50.1 µM
FC(F)(F)c1cc(C2CCCN(c3cnccn3)C2)n2ccnc2n1 (stereo unspecified)			> 30.2	IC50 [5]: > 100 µM
